According to PMC7106779 (2017):
“Also recorded” adds a separate entry of the source.

system: Sap9; assay: purified recombinant Sap9; settings: C. albicans, 37 °C, up to 2 h

| Sequence | fragment found | cleaved bond |
| --- | --- | --- |
| DSHARRHHGYKRKFHEKHHSHRGY | amino acids 1–17; also recorded: amino acids 18–24 | – |
| DSHAKRHHGYKRKFHEKHHSHRGY | – | K17-H18; also recorded: R12-K13; also recorded: K13-F14; also recorded: H18-H19 |
| DSHAKRHHGYLRKFHEKHHSHRGY | amino acids 1–17; also recorded: amino acids 18–24 | – |
| DSHALRHHGYKRKFHEKHHSHRGY | amino acids 1–17; also recorded: amino acids 18–24 | – |
| DSHAKRHHGYRRKFHEKHHSHRGY | amino acids 1–17; also recorded: amino acids 18–24 | – |
| DSHAKRHHGYKRRFHEKHHSHRGY | amino acids 1–17; also recorded: amino acids 18–24 | – |
